Reference: patent US20230413822A1, “ORAL CANINE FEED AND METHODS FOR C[…] INFESTATIONS IN A CANINE” (In the Bowl Animal Health, Inc., priority 2021, published 2023)
“And” between values parts separate entries of the source, which are not always exact repeats. Identical values can stand only once.

Tests used:
[1] = Plasma concentration of mivorilaner in dogs fed medicated daily feed (Example 6); assay type: in vivo; set-up: unit not given here
Excerpt: Methods: A pool of dogs are to be preliminarily infested with ˜50 unfed adult R. sanguineus ticks in order to produce dogs that can suitably sustain a reliable infestation rate, defined as approximately 25% of attached ticks being live at the end of a 72-hour period. The 24 dogs with the highest live attached tick counts are to be selected for inclusion in the study. The 18 dogs with the highest live attached tick counts are to be randomly assigned to one of a control group and 2 treatment groups. The 6 dogs with the next highest live attached tick counts are to be assigned to a third treatment group.
The dogs are to be housed individually during the study period and are to have ad libitum access to water.
Each dog in a treatment group (test groups 2-4) is to receive a medicated daily feed from study days 0-49. The medicated daily feed is to be offered to the dogs for 1 hour on each of days 0-49 according to test groups listed in TABLE 7.
Sample results of the average plasma concentration of isoxazoline in a canine's blood at different dosage levels are shown in TABLE 8 and FIG. 9 for mivorilaner.

[2] = Plasma concentration of mivorilaner in dogs given an oral liquid formulation daily (Example 1); assay type: in vivo; conditions: for Mivorilaner Concentration, Average: average of 6 canines, days 0-29; for Mivorilaner Concentration: individual canines, days 0-29, 0.75 mg/kg/day
Excerpt: Methods: A pool of 14 dogs are to be preliminarily infested with ˜100 unfed adult C. felis in order to produce dogs that can suitably sustain a reliable infestation rate, defined as approximately 50% fleas being live at the end of a 48-hour period. The 12 dogs with the highest live flea counts are to be selected for inclusion in the study. The dogs are to be divided into a control group and a treatment group.
The dogs are to be housed individually during the study period and are to be fed a commercial dry dog food ration with ad libitum access to water.
Each dog in the treatment group is to receive by mouth a liquid formulation of isoxazoline. The dosage of 0.75 mg/kg is to be administered to the dogs on each of days 0-29.
Dogs in the control group are not to receive isoxazoline or any other tick control treatment. Each dog in the treatment group is to be offered its daily ration (dry food) and the individual doses of liquid formulation are to be administered after the individual dog has eaten at least 25% of its total daily ration. After receiving the dose of isoxazoline, the dogs are to be allowed to continue eating. This mimics incorporating the isoxazoline in feed. Each dog in the treatment group and the control group is to be experimentally infested with 50 adult ticks on test days 5, 12, 19, 28 and 35. Comb counts for live and moribund attached ticks are to be conducted on days 7, 14, 21, 30 and 37.

O=C(CNC(=O)c1sc(C2=NO[C@@](c3cc(Cl)c(F)c(Cl)c3)(C(F)(F)F)C2)c2c1CCC2)NCC(F)F [Mivorilaner, 3-[(5S)-5-(3,5-dichloro-4-fluorophenyl)-5-(trifluoromethyl)-4,5-dihydroisoxazol-3-yl]-N-[2-[(2,2-difluoroethyl)amino]-2-oxoethyl]-5,6-dihydro-4H-cyclopenta[c]thiophene-1-carboxamide]
average plasma concentration of isoxazoline in a canine's blood ([1]; Group 2-106 mg/kg feed (anticipated 1 mg/kg daily), Time 1 hr): 49.98 | average plasma concentration of isoxazoline in a canine's blood ([1]; Group 2-106 mg/kg feed (anticipated 1 mg/kg daily), Time 3 hr): 292.00 | average plasma concentration of isoxazoline in a canine's blood ([1]; Group 2-106 mg/kg feed (anticipated 1 mg/kg daily), Time 6 hr): 539.00 | average plasma concentration of isoxazoline in a canine's blood ([1]; Group 2-106 mg/kg feed (anticipated 1 mg/kg daily), Time 10 hr): 505.40 | average plasma concentration of isoxazoline in a canine's blood ([1]; Group 2-106 mg/kg feed (anticipated 1 mg/kg daily), Time 24 hr): 458.60 | average plasma concentration of isoxazoline in a canine's blood ([1]; Group 2-106 mg/kg feed (anticipated 1 mg/kg daily), Time 48 hr): 771.83 | average plasma concentration of isoxazoline in a canine's blood ([1]; Group 2-106 mg/kg feed (anticipated 1 mg/kg daily), Time 96 hr): 1570.50 | average plasma concentration of isoxazoline in a canine's blood ([1]; Group 2-106 mg/kg feed (anticipated 1 mg/kg daily), Time 168 hr): 2156.67 | average plasma concentration of isoxazoline in a canine's blood ([1]; Group 2-106 mg/kg feed (anticipated 1 mg/kg daily), Time 240 hr): 3003.33 | average plasma concentration of isoxazoline in a canine's blood ([1]; Group 2-106 mg/kg feed (anticipated 1 mg/kg daily), Time 336 hr): 3290.00 | average plasma concentration of isoxazoline in a canine's blood ([1]; Group 3-106 mg/kg feed (anticipated 1 mg/kg daily), Time 1 hr): 40.41 | average plasma concentration of isoxazoline in a canine's blood ([1]; Group 3-106 mg/kg feed (anticipated 1 mg/kg daily), Time 3 hr): 264.83 | average plasma concentration of isoxazoline in a canine's blood ([1]; Group 3-106 mg/kg feed (anticipated 1 mg/kg daily), Time 6 hr): 467.50 | average plasma concentration of isoxazoline in a canine's blood ([1]; Group 3-106 mg/kg feed (anticipated 1 mg/kg daily), Time 10 hr): 419.17 | average plasma concentration of isoxazoline in a canine's blood ([1]; Group 3-106 mg/kg feed (anticipated 1 mg/kg daily), Time 24 hr): 435.17 | average plasma concentration of isoxazoline in a canine's blood ([1]; Group 3-106 mg/kg feed (anticipated 1 mg/kg daily), Time 48 hr): 781.83 | average plasma concentration of isoxazoline in a canine's blood ([1]; Group 3-106 mg/kg feed (anticipated 1 mg/kg daily), Time 96 hr): 1596.67 | average plasma concentration of isoxazoline in a canine's blood ([1]; Group 3-106 mg/kg feed (anticipated 1 mg/kg daily), Time 168 hr): 2406.67 | average plasma concentration of isoxazoline in a canine's blood ([1]; Group 3-106 mg/kg feed (anticipated 1 mg/kg daily), Time 240 hr): 3026.67 | average plasma concentration of isoxazoline in a canine's blood ([1]; Group 3-106 mg/kg feed (anticipated 1 mg/kg daily), Time 336 hr): 3516.67 | average plasma concentration of isoxazoline in a canine's blood ([1]; Group 4-318 mg/kg feed (anticipated 3 mg/kg daily), Time 1 hr): 143.75 | average plasma concentration of isoxazoline in a canine's blood ([1]; Group 4-318 mg/kg feed (anticipated 3 mg/kg daily), Time 3 hr): 846.50 | average plasma concentration of isoxazoline in a canine's blood ([1]; Group 4-318 mg/kg feed (anticipated 3 mg/kg daily), Time 6 hr): 1265.67 | average plasma concentration of isoxazoline in a canine's blood ([1]; Group 4-318 mg/kg feed (anticipated 3 mg/kg daily), Time 10 hr): 1198.17 | average plasma concentration of isoxazoline in a canine's blood ([1]; Group 4-318 mg/kg feed (anticipated 3 mg/kg daily), Time 24 hr): 1021.17 | average plasma concentration of isoxazoline in a canine's blood ([1]; Group 4-318 mg/kg feed (anticipated 3 mg/kg daily), Time 48 hr): 2011.67 | average plasma concentration of isoxazoline in a canine's blood ([1]; Group 4-318 mg/kg feed (anticipated 3 mg/kg daily), Time 96 hr): 3928.33 | average plasma concentration of isoxazoline in a canine's blood ([1]; Group 4-318 mg/kg feed (anticipated 3 mg/kg daily), Time 168 hr): 6461.67 | average plasma concentration of isoxazoline in a canine's blood ([1]; Group 4-318 mg/kg feed (anticipated 3 mg/kg daily), Time 240 hr): 8696.67 | average plasma concentration of isoxazoline in a canine's blood ([1]; Group 4-318 mg/kg feed (anticipated 3 mg/kg daily), Time 336 hr): 11600.00 | Mivorilaner Concentration, Average ([2]; Day 3, 0.75 mg/kg/day oral): 674 ng/mL | Mivorilaner Concentration, Average ([2]; Day 7, 0.75 mg/kg/day oral): 1449 ng/mL | Mivorilaner Concentration, Average ([2]; Day 14, 0.75 mg/kg/day oral): 2105 ng/mL | Mivorilaner Concentration, Average ([2]; Day 21, 0.75 mg/kg/day oral): 2725 ng/mL | Mivorilaner Concentration, Average ([2]; Day 30, 0.75 mg/kg/day oral): 2628 ng/mL | Mivorilaner Concentration, Average ([2]; Day 37, 0.75 mg/kg/day oral): 2017 ng/mL | Mivorilaner Concentration ([2]; Day 3, 0.75 mg/kg/day oral): 556 ng/mL and 648 ng/mL and 579 ng/mL and 660 ng/mL | Mivorilaner Concentration ([2]; Day 7, 0.75 mg/kg/day oral): 1330 ng/mL and 1620 ng/mL and 994 ng/mL and 1470 ng/mL | Mivorilaner Concentration ([2]; Day 14, 0.75 mg/kg/day oral): 1990 ng/mL and 2530 ng/mL and 1560 ng/mL and 2120 ng/mL | Mivorilaner Concentration ([2]; Day 21, 0.75 mg/kg/day oral): 2750 ng/mL and 2820 ng/mL and 2450 ng/mL and 2720 ng/mL | Mivorilaner Concentration ([2]; Day 30, 0.75 mg/kg/day oral): 2570 ng/mL and 2890 ng/mL and 2320 ng/mL and 2600 ng/mL
